Data: PubChem BioAssay AID1033 (Sanford-Burnham Center for Chemical Genomics, 2008)
Activity calls are given as the source filed them. How the calls were made is not given here.

target: Chaperone protein DnaK (Escherichia coli (strain K12)) (UniProt P0A6Y8); experiment: binders of DnaK substrate-binding domain, biophysical, NMR, chaperone (AID 1033); conditions: Purified DnaK SBD, NMR ligand binding
Sequence (P0A6Y8 whole entry, looked up, the tested form may be a part): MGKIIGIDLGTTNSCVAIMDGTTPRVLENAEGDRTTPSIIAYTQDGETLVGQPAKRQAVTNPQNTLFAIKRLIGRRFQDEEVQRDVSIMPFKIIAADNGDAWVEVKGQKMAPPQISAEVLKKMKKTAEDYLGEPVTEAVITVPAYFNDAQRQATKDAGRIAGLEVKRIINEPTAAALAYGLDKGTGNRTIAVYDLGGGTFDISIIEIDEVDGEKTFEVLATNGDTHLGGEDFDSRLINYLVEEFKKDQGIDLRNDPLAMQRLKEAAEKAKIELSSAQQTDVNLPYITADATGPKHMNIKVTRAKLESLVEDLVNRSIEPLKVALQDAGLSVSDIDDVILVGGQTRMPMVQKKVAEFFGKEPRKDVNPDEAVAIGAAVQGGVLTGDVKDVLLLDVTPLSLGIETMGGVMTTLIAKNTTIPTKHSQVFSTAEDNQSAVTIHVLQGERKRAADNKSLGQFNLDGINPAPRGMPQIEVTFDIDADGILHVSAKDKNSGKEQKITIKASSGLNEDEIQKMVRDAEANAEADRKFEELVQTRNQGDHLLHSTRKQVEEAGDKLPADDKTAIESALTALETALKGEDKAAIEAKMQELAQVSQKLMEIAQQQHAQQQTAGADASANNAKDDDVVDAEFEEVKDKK

How did the Kd turn out when `CC1CC2(NC(=O)NC2=O)C(C)CN1C` (stereo not given) was run?
The Kd was > 4 mM (inactive).

Which Kd does the source give for `COC(=O)CC1=Nc2ccccc2NC(=O)C1` here?
The Kd was > 4 mM (inactive).

For `COc1c2ccoc2nc2c(OC)c(OCC(O)C(C)(C)O)ccc12` (stereo not given), which Kd is on record?
The Kd was > 4 mM (inactive).

Which Kd does the source give for `Cc1occc1C(=O)Nc1nnc(-c2ccncc2)s1` here?
The Kd was > 4 mM (inactive).

`COc1ccc(O)c(-c2cn[nH]c2-c2cccs2)c1` was tested. Which Kd did it give?
Its Kd is > 4 mM (inactive).

`CC(=O)c1ccc(N2C(=O)C(C(C)C)NC2=S)cc1` (stereo not given) was tested. Which Kd did it give?
The Kd was > 4 mM (inactive).

With `N[C@@H](Cc1ccc(O)c(O)c1)C(=O)O` as the compound, how does the Kd read?
Its Kd is > 4 mM (inactive).

`COc1ccc2ccc(=O)oc2c1` was tested. Which Kd did it give?
Its Kd is > 4 mM (inactive).

How did the Kd turn out when `CCNS(=O)(=O)c1cc(Br)ccc1OC` was run?
Its Kd is > 4 mM (inactive).

For `Cc1ccc2c(C)c(C(=O)Nc3nnc(C)s3)oc2c1`, which Kd is on record?
The Kd was > 4 mM (inactive).

`CS(=O)(=O)c1nncn1-c1ccccc1` was tested. Which Kd did it give?
The Kd was > 4 mM (inactive).

For `COc1cc2nc(-c3cccs3)oc(=O)c2cc1OC`, which Kd is on record?
The Kd was > 4 mM (inactive).

For `CC1(C)Cc2nc(N3CCOCC3)c(C#N)cc2CO1`, which Kd is on record?
The Kd was > 4 mM (inactive).

With `Nc1ccc(N2CCOCC2)c(Cl)c1` as the compound, how does the Kd read?
The Kd was > 4 mM (inactive).

Which Kd does the source give for `COc1c(OC)c2occc2c2oc(=O)ccc12` here?
The Kd was > 4 mM (inactive).

How did the Kd turn out when `c1cncc(Cn2cccc2)c1` was run?
Its Kd is > 4 mM (inactive).

`O=CN1CCN(C2CC(=O)N(c3ccccc3)C2=O)CC1` (stereo not given) was tested. Which Kd did it give?
Its Kd is > 4 mM (inactive).

With `COc1ncccc1N` as the compound, how does the Kd read?
The Kd was > 4 mM (inactive).

`CN(C)c1nc(N2CCOCC2)nc(N2CCOCC2)n1` was tested. Which Kd did it give?
The Kd was > 4 mM (inactive).

Which Kd does the source give for `O=C(Nc1ccncc1)c1cncc(Br)c1` here?
Its Kd is > 4 mM (inactive).

Which Kd does the source give for `CC(=O)O[C@@H]1CC2C(C)(CC[C@H](O)C2(C)C)C2CC[C@]3(C)C(=CC(=O)O[C@H]3c3ccoc3)C21C` (stereo not given in full) here?
Its Kd is > 4 mM (inactive).

`c1ccc(CSc2ncccn2)cc1` was tested. Which Kd did it give?
Its Kd is > 4 mM (inactive).

Which Kd does the source give for `Cc1onc(-c2ccccc2)c1C(=O)O` here?
The Kd was > 4 mM (inactive).

For `COc1cc2c(cc1OC)Cc1cc(OC)c(OC)cc1Cc1cc(OC)c(OC)cc1C2`, which Kd is on record?
The Kd was > 4 mM (inactive).

With `Nc1cncc(C(=O)O)c1` as the compound, how does the Kd read?
The Kd was > 4 mM (inactive).

`Cc1n[nH]c(=S)n(/N=C/c2ccccc2)c1=O` was tested. Which Kd did it give?
Its Kd is > 4 mM (inactive).

For `CN1CCC(NC(=S)NC2CC2)CC1`, which Kd is on record?
Its Kd is > 4 mM (inactive).

Which Kd does the source give for `OCc1ccc(OC(F)(F)F)cc1` here?
The Kd was > 4 mM (inactive).

How did the Kd turn out when `Cc1cc(NC(=O)c2cnn3cccnc23)no1` was run?
The Kd was > 4 mM (inactive).

Which Kd does the source give for `Cc1cc(O)c2c(c1)C(=O)c1cccc(O)c1C2=O` here?
The Kd was > 4 mM (inactive).

How did the Kd turn out when `Cc1ccccc1N1CCN(C(=O)C2CCCCC2)CC1` was run?
Its Kd is > 4 mM (inactive).

`CCc1ccccc1OCc1nnc(N)s1` was tested. Which Kd did it give?
Its Kd is > 4 mM (inactive).

For `CC(C)NC(=O)c1cc(-n2cnnc2)ccc1Cl`, which Kd is on record?
Its Kd is > 4 mM (inactive).

With `COC(=O)c1cnccc1C(F)(F)F` as the compound, how does the Kd read?
Its Kd is > 4 mM (inactive).

Which Kd does the source give for `Cc1occc1C(=O)NCc1ccccc1F` here?
The Kd was > 4 mM (inactive).

`O=C(O)c1ccc2c(c1)OCO2` was tested. Which Kd did it give?
The Kd was > 4 mM (inactive).

`CSc1nsc(SCc2cnc(C)nc2N)n1` was tested. Which Kd did it give?
Its Kd is > 4 mM (inactive).

For `CC(=O)OC1CC[C@@]2(C)C(CCC3C2CC[C@]2(C)C(C4=CC(=O)OC4)C(OC(C)=O)CC32O)C1` (stereo not given in full), which Kd is on record?
Its Kd is > 4 mM (inactive).

For `C[C@H]1C(=O)O[C@@H]2CCN3CC=C(COC(=O)[C@](C)(O)[C@]1(C)O)[C@H]23`, which Kd is on record?
The Kd was > 4 mM (inactive).

`O=C1C2CCCCC2C(=O)N1Cc1cccnc1` (stereo not given) was tested. Which Kd did it give?
Its Kd is > 4 mM (inactive).

Which Kd does the source give for `C[C@H]1O[C@@H](O[C@H]2[C@@H](O)C[C@H](O[C@H]3[C@@H](O)C[C@H](O[C@H]4CC[C@]5(C)C6CC[C@]7(C)[C@@H](C8=CC(=O)OC8)CC[C@]7(O)C6CC[C@@H]5C4)O[C@@H]3C)O[C@@H]2C)C[C@H](O)[C@@H]1O` (stereo not given in full) here?
Its Kd is > 4 mM (inactive).

Which Kd does the source give for `O=S1(=O)NC(=NCc2ccco2)c2ccccc21` here?
The Kd was > 4 mM (inactive).

With `CSc1nn(-c2ccccc2)c(N)c1C#N` as the compound, how does the Kd read?
The Kd was > 4 mM (inactive).

Which Kd does the source give for `CCOC(=O)C1CCN(c2ccc(C#N)cc2)CC1` here?
Its Kd is > 4 mM (inactive).

For `O=C1Cn2c(nc3ccccc32)N1c1ccccc1F`, which Kd is on record?
The Kd was > 4 mM (inactive).

For `COc1c2c(cc3c1OCO3)C13C=C[C@H](OC)CC1N(C2)CC3O` (stereo not given in full), which Kd is on record?
The Kd was > 4 mM (inactive).

`COc1ccc(C2CC(=O)c3ccc(OC)cc3O2)cc1` (stereo not given) was tested. Which Kd did it give?
Its Kd is > 4 mM (inactive).

For `O=C(NC1=NCCS1)c1ccc2snnc2c1`, which Kd is on record?
Its Kd is > 4 mM (inactive).

With `Nc1c(C(=O)O)sc2ncccc12` as the compound, how does the Kd read?
The Kd was > 4 mM (inactive).

With `COc1ccc(C2CC(=O)NN2)cc1OC1CCCC1` (stereo not given) as the compound, how does the Kd read?
Its Kd is > 4 mM (inactive).

With `CN(C)CCNC(CC(=O)Nc1ccccc1)C(=O)O` (stereo not given) as the compound, how does the Kd read?
The Kd was > 4 mM (inactive).

`Cc1ccc(-c2nc(N)n(C(=O)c3cccnc3)n2)cc1` was tested. Which Kd did it give?
Its Kd is > 4 mM (inactive).

Which Kd does the source give for `O=C1CSC(=Nc2ccc(O)cc2)N1` here?
Its Kd is > 4 mM (inactive).

With `COc1ccc(NC(=O)C(N)=O)cc1Cl` as the compound, how does the Kd read?
The Kd was > 4 mM (inactive).

`NC(=O)Cn1cnc(-c2ccc(F)cc2)c1` was tested. Which Kd did it give?
Its Kd is > 4 mM (inactive).

How did the Kd turn out when `CC(=O)Nc1nc2c(s1)C(=O)NCCC2` was run?
Its Kd is > 4 mM (inactive).

With `O=C(c1cccc(-n2cnnn2)c1)N1CCOCC1` as the compound, how does the Kd read?
The Kd was > 4 mM (inactive).

For `NC(=O)c1ccc(N2C(=O)CCC2=O)cc1Cl`, which Kd is on record?
Its Kd is > 4 mM (inactive).

How did the Kd turn out when `COc1cc([C@@H]2c3cc4c(cc3[C@H](O)[C@H]3COC(=O)[C@@H]23)OCO4)cc(OC)c1OC` was run?
Its Kd is > 4 mM (inactive).

`OCCNC(=S)Nc1ccc(F)cc1` was tested. Which Kd did it give?
The Kd was > 4 mM (inactive).
